Assay results published in US20130012546A1 (priority 2009, published 2013).

Experiment: logP(HCOOH) by HPLC
Format: physicochemical
Conditions: HPLC on reversed phase columns, pH 2.7, 0.1% formic acid in water / acetonitrile, linear gradient 10% to 95% acetonitrile; EEC directive 79/831 Annex V.A8
`CON=C(C(=O)Nc1nc(CON=C(c2ccccc2)n2nnnc2C)cs1)c1ccc(Br)cc1` [Example 29] gave a log p of 4.41.
With `CON=C(C(=O)Nc1nc(CON=C(c2ccccc2)n2nnnc2C)cs1)c1cccc(Cl)c1Cl` [Example 30] the log p was 4.32.
Compound `CC(=NOCC(=O)Nc1cccc(CON=C(c2ccccc2)c2nnnn2C)n1)C(C)(C)C` [Example 31] has a log p of 4.23.
In the case of `C#CCOCC(=O)Nc1nc(CO/N=C(/c2ccccc2)n2nnnc2C)cs1` [Example 49], the log p is reported as 2.69.
Compound `Cn1nnnc1/C(=N\OCc1cccc(NC(=O)OC2CC3CCC2(C)C3(C)C)n1)c1ccccc1` (centres unmarked) [Example 55] has a log p of 5.32.
With `Cn1nnnc1/C(=N\OCc1cccc(NC(=O)OCC2CCCCC2)n1)c1ccccc1` [Example 57] the log p was 4.72.
`Cn1nnnc1/C(=N\OCc1cccc(NC(=O)OCC2CC2)n1)c1ccccc1` [Example 58] gave a log p of 3.46.
`Cn1nnnc1/C(=N\OCc1cccc(NC(=O)OCCC2CCCCC2)n1)c1ccccc1` [Example 59] gave a log p of 5.11.
For `Cc1nnnn1C(=NOCc1csc(NC(=O)OCCCC2CCCC2)n1)c1ccccc1` [Example 65], the log p was 4.77.
`Cc1nnnn1C(=NOCc1csc(NC(=O)OCC2CCCC2)n1)c1ccccc1` [Example 66] showed a log p of 3.99.
`Cc1nnnn1C(=NOCc1csc(NC(=O)OCCCC2CCCCC2)n1)c1ccccc1` [Example 67] showed a log p of 5.11.
`Cc1nnnn1C(=NOCc1csc(NC(=O)OCCCC2CC2)n1)c1ccccc1` [Example 68] gave a log p of 3.9.
With `Cn1nnnc1C(=NOCc1cccc(NC(=O)OCCCC2CCCC2)n1)c1ccccc1` [Example 69] the log p was 5.06.
For `Cn1nnnc1C(=NOCc1cccc(NC(=O)OCC2CCCC2)n1)c1ccccc1` [Example 70], the log p was 4.25.
For `Cn1nnnc1C(=NOCc1cccc(NC(=O)OCCCC2CCCCC2)n1)c1ccccc1` [Example 71], the log p was 5.45.
For `Cn1nnnc1C(=NOCc1cccc(NC(=O)OCCCC2CC2)n1)c1ccccc1` [Example 72], the log p was 4.15.
`Cn1nnnc1C(=NOCc1csc(NC(=O)OCCCC2CCCC2)n1)c1ccccc1` [Example 73] gave a log p of 4.7.
In the case of `Cn1nnnc1C(=NOCc1csc(NC(=O)OCC2CCCC2)n1)c1ccccc1` [Example 74], the log p is reported as 3.92.
With `Cn1nnnc1C(=NOCc1csc(NC(=O)OCCCC2CCCCC2)n1)c1ccccc1` [Example 75] the log p was 5.03.
With `Cn1nnnc1C(=NOCc1csc(NC(=O)OCCCC2CC2)n1)c1ccccc1` [Example 76] the log p was 3.85.
Compound `CC(OC1CCCCCC1)C(=O)Nc1cccc(CON=C(c2ccccc2)c2nnnn2C)n1` (centres unmarked) [Example 100] has a log p of 4.8.
Compound `Cc1nnnn1C(=NOCc1csc(NC(=O)COC2CC(C)CCC2C(C)C)n1)c1ccccc1` (centres unmarked) [Example 106] has a log p of 5.48.
For `Cc1nnnn1C(=NOCc1cccc(NC(=O)COC2CC(C)CCC2C(C)C)n1)c1ccccc1` (centres unmarked) [Example 108], the log p was 5.95.
`C=C(C)C(C)=CCC(C)OCC(=O)Nc1nc(CON=C(c2ccccc2)n2nnnc2C)cs1` (centres unmarked) [compound 110] gave a log p of 4.56.
`C=CCCCOCC(=O)Nc1nc(CON=C(c2ccccc2)n2nnnc2C)cs1` [compound 111] showed a log p of 3.55.
For `C=CCCCOCC(=O)Nc1cccc(CON=C(c2ccccc2)n2nnnc2C)n1` [compound 112], the log p was 3.83.
Work on `C=C(C)C(C)=CCC(C)OCC(=O)Nc1cccc(CON=C(c2ccccc2)c2nnnn2C)n1` (centres unmarked) [compound 113] yielded a log p of 4.73.
Compound `C#CCOC(C(=O)Nc1nc(CON=C(c2ccccc2)n2nnnc2C)cs1)C(C)C` (centres unmarked) [compound 114] has a log p of 3.46.
For `C#CCOC(CC)C(=O)Nc1nc(CON=C(c2ccccc2)n2nnnc2C)cs1` (centres unmarked) [compound 115], the log p was 3.11.
For `C#CCOC(CC)C(=O)Nc1nc(CON=C(c2ccccc2)c2nnnn2C)cs1` (centres unmarked) [compound 116], the log p was 3.08.
With `C#CCOC(C(=O)Nc1nc(CON=C(c2ccccc2)c2nnnn2C)cs1)C(C)C` (centres unmarked) [compound 117] the log p was 3.44.
`Cn1nnnc1C(=NOCc1csc(NC(=O)COCC#C[Si](C)(C)C)n1)c1ccccc1` [compound 118] showed a log p of 3.7.
In the case of `C#CCOC(CC)C(=O)Nc1cccc(CON=C(c2ccccc2)n2nnnc2C)n1` (centres unmarked) [compound 119], the log p is reported as 3.33.
For `C#CCOC(C(=O)Nc1cccc(CON=C(c2ccccc2)n2nnnc2C)n1)C(C)C` (centres unmarked) [compound 120], the log p was 3.7.
`C#CCOC(CC)C(=O)Nc1cccc(CON=C(c2ccccc2)c2nnnn2C)n1` (centres unmarked) [compound 121] showed a log p of 3.27.
Compound `C#CCOC(C(=O)Nc1cccc(CON=C(c2ccccc2)c2nnnn2C)n1)C(C)C` (centres unmarked) [compound 122] has a log p of 3.63.
In the case of `CCON=C(C(=O)Nc1nc(CON=C(c2ccccc2)n2nnnc2C)cs1)c1ccc(Cl)cc1` [compound 123], the log p is reported as 4.61.
For `CON=C(C(=O)Nc1nc(CON=C(c2ccccc2)n2nnnc2C)cs1)c1ccc(C)cc1` [compound 124], the log p was 4.13.
With `CON=C(C(=O)Nc1nc(CON=C(c2ccccc2)n2nnnc2C)cs1)c1ccc(C)cc1` [compound 125] the log p was 3.85.
Work on `CCON=C(C(=O)Nc1nc(CON=C(c2ccccc2)n2nnnc2C)cs1)c1ccc(C)cc1` [compound 126] yielded a log p of 4.13.
`CCON=C(C(=O)Nc1nc(CON=C(c2ccccc2)n2nnnc2C)cs1)c1ccc(C)cc1` [compound 127] showed a log p of 4.49.
In the case of `CCON=C(C(=O)Nc1nc(CON=C(c2ccccc2)c2nnnn2C)cs1)c1ccc(Cl)cc1` [compound 128], the log p is reported as 4.56.
For `CON=C(C(=O)Nc1nc(CON=C(c2ccccc2)c2nnnn2C)cs1)c1ccc(C)cc1` [compound 129], the log p was 4.05.
Compound `CON=C(C(=O)Nc1nc(CON=C(c2ccccc2)c2nnnn2C)cs1)c1ccc(C)cc1` [compound 130] has a log p of 3.79.
With `CON=C(C(=O)Nc1cccc(CON=C(c2ccccc2)n2nnnc2C)n1)c1ccccc1Cl` [compound 131] the log p was 4.18.
`CON=C(C(=O)Nc1cccc(CON=C(c2ccccc2)n2nnnc2C)n1)c1ccc(Cl)cc1` [compound 132] showed a log p of 4.69.
Compound `CCON=C(C(=O)Nc1cccc(CON=C(c2ccccc2)n2nnnc2C)n1)c1ccc(Cl)cc1` [compound 133] has a log p of 4.93.
Compound `CON=C(C(=O)Nc1cccc(CON=C(c2ccccc2)n2nnnc2C)n1)c1ccc(C)cc1` [compound 134] has a log p of 4.44.
`CON=C(C(=O)Nc1cccc(CON=C(c2ccccc2)n2nnnc2C)n1)c1ccc(Cl)cc1` [compound 135] gave a log p of 4.51.
For `CON=C(C(=O)Nc1cccc(CON=C(c2ccccc2)n2nnnc2C)n1)c1ccc(F)cc1` [compound 136], the log p was 4.11.
`CCON=C(C(=O)Nc1cccc(CON=C(c2ccccc2)c2nnnn2C)n1)c1ccc(Cl)cc1` [compound 137] gave a log p of 4.83.
Compound `CON=C(C(=O)Nc1cccc(CON=C(c2ccccc2)c2nnnn2C)n1)c1ccc(C)cc1` [compound 138] has a log p of 4.27.
Work on `C=C=CCCC(=O)Nc1nc(CON=C(c2ccccc2)n2nnnc2C)cs1` [compound 139] yielded a log p of 3.09.
With `C=C=CCCCOC(=O)Nc1nc(CON=C(c2ccccc2)c2nnnn2C)cs1` [compound 140] the log p was 3.69.
For `C=C=CCCC(=O)Nc1cccc(CON=C(c2ccccc2)n2nnnc2C)n1` [compound 141], the log p was 3.23.
Work on `C=C=CCCCOC(=O)Nc1cccc(CON=C(c2ccccc2)n2nnnc2C)n1` [compound 142] yielded a log p of 4.01.
For `Cc1nnnn1C(=NOCc1cccc(NC(=O)OC2CC3CCC2(C)C3(C)C)n1)c1ccccc1` (centres unmarked) [compound 143], the log p was 5.3.
Work on `Cc1nnnn1C(=NOCc1csc(NC(=O)OCCC2CC2)n1)c1ccccc1` [compound 145] yielded a log p of 3.5.
Compound `Cc1nnnn1C(=NOCc1csc(NC(=O)OCCC2CCCC2)n1)c1ccccc1` [compound 146] has a log p of 4.33.
Work on `Cc1nnnn1C(=NOCc1csc(NC(=O)OC(C)C2CCCCC2)n1)c1ccccc1` (centres unmarked) [compound 147] yielded a log p of 4.66.
With `Cc1nnnn1C(=NOCc1csc(NC(=O)OC(C)C2CCCC2)n1)c1ccccc1` (centres unmarked) [compound 148] the log p was 4.3.
In the case of `Cn1nnnc1C(=NOCc1csc(NC(=O)OCCC2CC2)n1)c1ccccc1` [compound 149], the log p is reported as 3.46.
`Cn1nnnc1C(=NOCc1csc(NC(=O)OCCC2CCCC2)n1)c1ccccc1` [compound 150] showed a log p of 4.26.
`CC(OC(=O)Nc1nc(CON=C(c2ccccc2)c2nnnn2C)cs1)C1CCCCC1` (centres unmarked) [compound 151] gave a log p of 4.58.
For `CC(OC(=O)Nc1nc(CON=C(c2ccccc2)c2nnnn2C)cs1)C1CCCC1` (centres unmarked) [compound 152], the log p was 4.25.
`Cc1nnnn1C(=NOCc1cccc(NC(=O)OCCC2CC2)n1)c1ccccc1` [compound 155] gave a log p of 3.81.
In the case of `Cc1nnnn1C(=NOCc1cccc(NC(=O)OCCC2CCCC2)n1)c1ccccc1` [compound 156], the log p is reported as 4.71.
`Cc1nnnn1C(=NOCc1cccc(NC(=O)OC(C)C2CCCCC2)n1)c1ccccc1` (centres unmarked) [compound 157] showed a log p of 5.08.
For `Cc1nnnn1C(=NOCc1cccc(NC(=O)OC(C)C2CCCC2)n1)c1ccccc1` (centres unmarked) [compound 158], the log p was 4.71.
Work on `Cn1nnnc1C(=NOCc1cccc(NC(=O)OCCC2CC2)n1)c1ccccc1` [compound 159] yielded a log p of 3.72.
Work on `Cn1nnnc1C(=NOCc1cccc(NC(=O)OCCC2CCCC2)n1)c1ccccc1` [compound 160] yielded a log p of 4.61.
In the case of `CC(OC(=O)Nc1cccc(CON=C(c2ccccc2)c2nnnn2C)n1)C1CCCCC1` (centres unmarked) [compound 161], the log p is reported as 4.98.
For `CC(OC(=O)Nc1cccc(CON=C(c2ccccc2)c2nnnn2C)n1)C1CCCC1` (centres unmarked) [compound 162], the log p was 4.61.
Work on `Cn1nnnc1C(=NOCc1cccc(NC(=O)OCC2CCC2)n1)c1ccccc1` [compound 163] yielded a log p of 3.92.
`CC(OC1CCCCC1)C(=O)Nc1nc(CON=C(c2ccccc2)c2nnnn2C2CC2)cs1` (centres unmarked) [compound 164] gave a log p of 4.53.

Same assay, conditions: reversed phase HPLC column; HPLC on reversed phase columns, pH 2.7, 0.1% formic acid in water / acetonitrile, linear gradient 10% to 95% acetonitrile; EEC directive 79/831 Annex V.A8; read-out: log p
In the case of `CC(CC1CC1)OC(=O)Nc1cccc(CO/N=C(/c2ccccc2)c2nnnn2C)n1` (centres unmarked) [Example 60, 1-cyclopropylpropan-2-yl {6-[({[(Z)-(1-methyl-1H-tetrazol-5-yl)(phenyl)methylene]amino}oxy)methyl]pyridin-2-yl}carbamate], the chromatographic logP is reported as 4.15.

Same assay, conditions: reversed phase HPLC columns, pH 2.7; HCOOH; read-out: logP(HCOOH)
`CC(CC1CC1)OC(=O)Nc1cccc(CO/N=C(/c2ccccc2)c2nnnn2C)n1` (centres unmarked) [Example 60, 1-cyclopropylpropan-2-yl {6-[({[(Z)-(1-methyl-1H-tetrazol-5-yl)(phenyl)methylene]amino}oxy)methyl]pyridin-2-yl}carbamate] showed a chromatographic logP of 4.15.
